Results on 26 molecules are retold here after ChEMBL document CHEMBL4651402, “Screening of ~5500 FDA-approved drugs and clinical candidates for anti-SARS-CoV-2 activity” (2021).

SMILES strings stand for the structures. A value given as a limit tells only on which side of the number the result lay.

In the assay the test system is SARS-CoV-2. Put plainly: microbe, parasite or virus in culture. Conditions: Severe acute respiratory syndrome coronavirus 2, Vero C1008, 48 h.

`OC[C@H]1O[C@@](CO)(O[C@H]2O[C@H](CO)[C@@H](O)[C@H](O)[C@H]2O)[C@@H](O)[C@@H]1O` [SUCROSE] had an IC50 above 20 µM. Further, for the setting “read-out: pIC50 (converted)”, the IC50 is above 20 µM.
The molecule `CN1C(C(=O)Nc2nccs2)=C(O)c2ccccc2S1(=O)=O` [SUDOXICAM] came in with an IC50 above 20 µM. Moreover, under “read-out: pIC50 (converted)”, the IC50 is above 20 µM.
The molecule `CC1(C)[C@H](C(=O)O)N2C(=O)C[C@H]2S1(=O)=O` [SULBACTAM] gave an IC50 above 20 µM. Further, the IC50 (read-out: pIC50 (converted)) was above 20 µM.
`Clc1ccc(CSC(Cn2ccnc2)c2ccc(Cl)cc2Cl)cc1` (configuration not stated) [SULCONAZOLE] had an IC50 above 20 µM. Moreover, the IC50 (read-out: pIC50 (converted)) is above 20 µM.
In turn, `Nc1ccc(S(=O)(=O)NC(=O)c2ccccc2)cc1` [SULFABENZAMIDE] had an IC50 above 20 µM. Also, for the setting “read-out: pIC50 (converted)”, the IC50 is above 20 µM.
For the molecule `NC(=O)NS(=O)(=O)c1ccc(N)cc1` [SULFACARBAMIDE], the IC50 is above 20 µM. Besides, the IC50 (read-out: pIC50 (converted)) was above 20 µM.
`CC(=O)NS(=O)(=O)c1ccc(N)cc1` [SULFACETAMIDE] came in with an IC50 above 20 µM. In addition, the IC50 (read-out: pIC50 (converted)) was above 20 µM.
Take `Nc1ccc(S(=O)(=O)Nc2ccc(Cl)nn2)cc1` [SULFACHLORPYRIDAZINE]: the IC50 is above 20 µM. In addition, the IC50 (read-out: pIC50 (converted)) is above 20 µM.
`CCn1ccc(NS(=O)(=O)c2ccc(N)cc2)nc1=O` [SULFACYTINE] showed an IC50 above 20 µM. Also, the IC50 (read-out: pIC50 (converted)) was above 20 µM.
`Nc1ccc(S(=O)(=O)Nc2ncccn2)cc1` [SULFADIAZINE] yielded an IC50 above 20 µM. Further, the IC50 (read-out: pIC50 (converted)) was above 20 µM.
The molecule `COc1cc(NS(=O)(=O)c2ccc(N)cc2)nc(OC)n1` [SULFADIMETHOXINE] registered an IC50 above 20 µM. In addition, the IC50 (read-out: pIC50 (converted)) is above 20 µM.
With `COc1ncnc(NS(=O)(=O)c2ccc(N)cc2)c1OC` [SULFADOXINE], the IC50 was above 20 µM. Further, the IC50 (read-out: pIC50 (converted)) was above 20 µM.
In turn, `N=C(N)NS(=O)(=O)c1ccc(N)cc1` [SULFAGUANIDINE] registered an IC50 above 20 µM. Moreover, under “read-out: pIC50 (converted)”, the IC50 is above 20 µM.
`Cc1cc(C)nc(NS(=O)(=O)c2ccc(N)cc2)n1` [SULFAMETHAZINE] registered an IC50 above 20 µM. Moreover, the IC50 (read-out: pIC50 (converted)) is above 20 µM.
In turn, `Cc1nnc(NS(=O)(=O)c2ccc(N)cc2)s1` [SULFAMETHIZOLE] gave an IC50 above 20 µM. For the same molecule, the IC50 (read-out: pIC50 (converted)) is above 20 µM.
Consider `Cc1cc(NS(=O)(=O)c2ccc(N)cc2)no1` [SULFAMETHOXAZOLE], for which the IC50 was above 20 µM. Besides, the IC50 (read-out: pIC50 (converted)) is above 20 µM.
`COc1ccc(NS(=O)(=O)c2ccc(N)cc2)nn1` [SULFAMETHOXYPYRIDAZINE] displayed an IC50 above 20 µM. Also, under “read-out: pIC50 (converted)”, the IC50 was above 20 µM.
In turn, `COc1cc(NS(=O)(=O)c2ccc(N)cc2)ncn1` [SULFAMONOMETHOXINE] displayed an IC50 above 20 µM. The IC50 (read-out: pIC50 (converted)) is above 20 µM.
Regarding `Nc1ccc(S(N)(=O)=O)cc1` [SULFANILAMIDE], the IC50 is above 20 µM. The IC50 (read-out: pIC50 (converted)) was above 20 µM.
`Nc1ccc(S(=O)(=O)Nc2ccnn2-c2ccccc2)cc1` [SULFAPHENAZOLE] gave an IC50 above 20 µM. Further, under “read-out: pIC50 (converted)”, the IC50 was above 20 µM.
Take `Nc1ccc(S(=O)(=O)Nc2ccccn2)cc1` [SULFAPYRIDINE]: the IC50 was above 20 µM. The IC50 (read-out: pIC50 (converted)) is above 20 µM.
On to `Nc1ccc(S(=O)(=O)Nc2cnc3ccccc3n2)cc1` [SULFAQUINOXALINE], for which the IC50 was above 20 µM. Moreover, the IC50 (read-out: pIC50 (converted)) was above 20 µM.
In the case of `O=C(O)c1cc(/N=N/c2ccc(S(=O)(=O)Nc3ccccn3)cc2)ccc1O` [SULFASALAZINE], the IC50 was above 20 µM. Moreover, the IC50 (read-out: pIC50 (converted)) is above 20 µM.
Molecule `Nc1ccc(S(=O)(=O)Nc2nccs2)cc1` [SULFATHIAZOLE] had an IC50 above 20 µM. Further, the IC50 (read-out: pIC50 (converted)) is above 20 µM.
Regarding `COc1ccc(CCC(C)NCC(O)c2ccc(O)c([S+](C)[O-])c2)cc1` (configuration not stated) [SULFINALOL], the IC50 was above 20 µM. For the same molecule, the IC50 (read-out: pIC50 (converted)) was above 20 µM.
Molecule `O=C1C(CC[S+]([O-])c2ccccc2)C(=O)N(c2ccccc2)N1c1ccccc1` (configuration not stated) [SULFINPYRAZONE] had an IC50 above 20 µM. Besides, the IC50 (read-out: pIC50 (converted)) is above 20 µM.
